Reference: PubChem BioAssay (NCI)
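The compound was tested at five concentrations on cells cultured in 96-well plates, with a 48-hour exposure period. Definition used: TGI = concentration required for complete inhibition of growth.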

How the values were obtained:
Assay in all cases: inhibition of tumour cell growth, NCI panel, 48 h
M14 melanoma = tested on: M14 melanoma
NCI-H23 lung = tested on: NCI-H23 lung
A498 renal = tested on: A498 renal
HT29 colon = tested on: HT29 colon
OVCAR-4 ovarian = tested on: OVCAR-4 ovarian
TK-10 renal = tested on: TK-10 renal
A549 NSCLC = tested on: A549 NSCLC
UACC-257 melanoma = tested on: UACC-257 melanoma
HCT-15 colon = tested on: HCT-15 colon
SK-OV-3 ovarian = tested on: SK-OV-3 ovarian

| SMILES | TGI (M14 melanoma) | TGI (NCI-H23 lung) | TGI (A498 renal) | TGI (HT29 colon) | TGI (OVCAR-4 ovarian) | TGI (TK-10 renal) | TGI (A549 NSCLC) | TGI (UACC-257 melanoma) | TGI (HCT-15 colon) | TGI (SK-OV-3 ovarian) |
| --- | --- | --- | --- | --- | --- | --- | --- | --- | --- | --- |
| CCOc1cn(C2CC(O)C(CO)O2)c(=O)[nH]c1=O (stereo not given) | > 100 µM | > 100 µM | > 100 µM | > 100 µM | > 100 µM | > 100 µM | > 100 µM | > 100 µM | > 100 µM | > 100 µM |
| O=C1CSC(c2cccc(Oc3ccccc3)c2)N1c1ccc(Cl)cc1 (stereo not given) | > 100 µM | > 100 µM | 47.6 µM | > 100 µM | > 100 µM | 71.9 µM | > 100 µM | 46.5 µM | > 100 µM | > 100 µM |
| COCN(CCC1=CCCCC1)C(=O)OC | > 100 µM | > 100 µM | > 100 µM | > 100 µM | > 100 µM | > 100 µM | > 100 µM | > 100 µM | > 100 µM | > 100 µM |
| CCOCc1nc2c(OC)cc(-c3nc4ccc(N5CCN(C)CC5)cc4[nH]3)c(OC)c2[nH]1 | 35.3 µM | > 100 µM | > 100 µM | 83 µM | > 100 µM | > 100 µM | > 100 µM | 34.4 µM | > 100 µM | > 100 µM |
| COc1cc(Cn2c3c(c4cc(O)ccc42)Cc2ccccc2C3=O)cc(OC)c1 | > 100 µM | > 100 µM | > 100 µM | > 100 µM | > 100 µM | > 100 µM | > 100 µM | > 100 µM | > 100 µM | > 100 µM |
| CCOC(=O)N/N=C(/N)c1cccc([N+](=O)[O-])c1 | > 100 µM | > 100 µM | > 100 µM | > 100 µM | > 100 µM | > 100 µM | > 100 µM | > 100 µM | > 100 µM | > 100 µM |
| O=C(O)Cc1cccc2c(=O)c3ccccc3oc12 | > 100 µM | > 100 µM | > 100 µM | > 100 µM | > 100 µM | > 100 µM | > 100 µM | > 100 µM | > 100 µM | 41.9 µM |
| COC[C@@H](C[C@H]1O[C@@](O)([C@H](O)[C@@H]2C[C@H](OC)[C@@H](O)CC/C=C(C)/C=C/[C@@H](O[C@@H]3O[C@@H](C)[C@H](OC)[C@@H](O)[C@@H]3O)[C@H](C)/C=C(C)/C=C(C)/C=C(\C)C(=O)O2)[C@H](C)[C@@H](O)[C@H]1C)O[C@H]1C[C@](C)(O)[C@@H](O[C@H]2C[C@@H](OC)[C@H](O)[C@@H](C)O2)C(C)O1 (stereo not given in full) | > 100 µM | > 100 µM | > 100 µM | > 100 µM | > 100 µM | > 100 µM | > 100 µM | 26.5 µM | > 100 µM | > 100 µM |
| O=Cc1ccc2c(c1)CC1(Cc3ccccc3C1)C2 | 26.8 µM | 50 µM | 83.7 µM | 51.2 µM | 48.7 µM | > 100 µM | > 100 µM | 44.1 µM | 73.4 µM | > 100 µM |
| NN/C(=N\S(=O)(=O)c1cc2ccccc2s1)Nc1ccc(Cl)cc1 | 37.9 µM | 41.4 µM | 39.5 µM | 38.9 µM | 38.5 µM | 51.2 µM | 39.8 µM | 37.3 µM | > 100 µM | > 100 µM |
| COc1cc(CNCc2cc(OC)c(OC)c(OC)c2)cc(OC)c1OC | > 10 µM | > 10 µM | > 10 µM | > 10 µM | > 10 µM | > 10 µM | > 10 µM | > 10 µM | > 10 µM | > 10 µM |
| C(=Nc1ccc(-c2nc3ccccc3[nH]2)cc1)c1cccs1 | > 100 µM | > 100 µM | > 100 µM | > 100 µM | > 100 µM | > 100 µM | > 100 µM | > 100 µM | > 100 µM | > 100 µM |
| NC(N)=NCCC[C@H](N)C(=O)NCC(=O)N[C@@H](CC(=O)O)c1ncc(NC(=O)C(F)(F)F)o1 | > 25 µM | > 25 µM | > 25 µM | > 25 µM | > 25 µM | > 25 µM | > 25 µM | > 25 µM | > 25 µM | > 25 µM |
| CCOC(=O)c1cc(C(O)P2(=O)N(CC(C)(C)C)[C@@H]3CCCC[C@H]3N2CC(C)(C)C)cn1C(=O)OC(C)(C)C (stereo not given in full) | 29.7 µM | 68.3 µM | 65.3 µM | 26.7 µM | 77.7 µM | 57.3 µM | 38.8 µM | 28.7 µM | 36 µM | 59.2 µM |
| C[N+](C)(C)CC1CCCCCCCCCCC1=O (stereo not given) | > 100 µM | > 100 µM | > 100 µM | > 100 µM | > 100 µM | > 100 µM | > 100 µM | > 100 µM | > 100 µM | > 100 µM |
| O=C1C=CC[C@H]2O[C@@H](COC(=O)Cc3ccccc3)C[C@H]2O1 | > 100 µM | 66.6 µM | > 100 µM | 71.7 µM | 85.9 µM | 65.5 µM | > 100 µM | > 100 µM | 45.7 µM | > 100 µM |
